{"source": "patent US5912233A", "about": "“Methods and peptides for the treatment of non-IgE-mediated diseases” (Dura Pharmaceuticals, Inc., priority 1995, dated 1999)", "key": {"[1]": {"test_system": "immune complex-mediated ulcerative colitis", "experiment": "Immune complex-induced ulcerative colitis model (formalin + IgG immune complexes)", "assay_type": "in vivo, BKA mice", "details": "prednisolone 5.0 mg/kg i.p.", "method": "A mouse model of intestinal inflammation was employed wherein the efficacy of pentigetide in reducing inflammation induced by formalin and complementfixing lgG immune complexes was measured. This model is particularly useful as a model of human ulcerative colitis and shares many clinical and histological functions of the human disease including sensitivity to glucocorticoids, sulfasalazine and 5-aminosalicylic acid (see L. P. Walsh, et al., British J. Pharm. 91:294 (1987); A. Blackham, et al., British J. Pharm. 89:694 (1986); L. D. Walsh and I. J. Zeitlin, British J. Pharm. 92:741 (1987)). The mouse model of intestinal inflammation used in these studies is induced by the exposure of the animals to chemicals which are known to trigger inflammatory processes in both animals and humans. […]\nColonic tissue water content was determined by tissue weight loss on drying of colonic tissues. […]\nThe response to immune complex alone was determined quantitatively by subtracting the mean value in group B from the mean value in group C. An estimate of the percentage reduction in this response produced by the drug was calculated as: [formula] […] Statistical significance was determined using the non-parametric Mann-Whitney U-test. […]"}, "[2]": {"test_system": "lymphoblastoid tissue culture cells", "details": "two trials; U.S. Pat. No. 4,161,522; cited from earlier work"}, "[3]": {"test_system": "immunoglobulin Fc receptors", "details": "U.S. Pat. No. 4,628,045; cited from earlier work"}, "[4]": {"test_system": "chronic idiopathic urticaria", "details": "human, in vivo"}, "[5]": {"test_system": "carrageenan-induced inflammation", "experiment": "Carrageenan-induced footpad edema", "assay_type": "in vivo, Balb/C mice", "details": "10 mg/kg s.c. 24 hours prior to carrageenan", "method": "In order to examine the ability of pentigetide to inhibit carrageenan-induced inflammation, female Balb/C mice were injected with 0.025 ml of 1.0% carrageenan solution (type lx carrageenan: Sigma No. C-1013, Lot No. 86F-0698) or saline in the right hind footpad 5 minutes after intravenous tail vein injection of 0.2 ml pentigetide (1.0 mg/kg) or saline solution. Indomethacin (10 mg/kg was used as a positive control and was administered by subcutaneous injection 24 hours prior to carrageenan injection. Footpad volumes were measured using a Buxco plethysmograph over a 6 hour period. Pentigetide produced substantial inhibition of carrageenan-induced inflammation when compared to saline control animals."}, "[6]": {"test_system": "sheep erythrocyte (SRBC)-induced DTH reactions", "experiment": "Sheep erythrocyte (SRBC)-induced DTH, footpad volume", "assay_type": "in vivo, Balb/C mice", "details": "indomethacin 1.0 mg/kg, day 4; positive control"}, "[7]": {"test_system": "tetanus toxoid-induced DTH reactions", "set-up": "species or system Balb/C mice", "details": "mouse, in vivo"}}, "note": "Values joined by “and” are separate entries in the source; they are usually repeats but may differ in a detail not shown here. Equal entries are not always repeated. Residues, ends and D or L forms follow the SMILES beside them. No end group written: not given here."}
{"molecule": "C[C@]12C=CC(=O)C=C1CC[C@@H]1[C@@H]2[C@@H](O)C[C@@]2(C)[C@H]1CC[C@]2(O)C(=O)CO", "note": "[prednisolone]", "values": [{"measurement": "reduction of colonic edema", "setting": "[1]; three days prior and daily thereafter, p<0.01", "value": 86.2, "unit": "%"}, {"measurement": "reduction of colonic edema (in the colitic sign score paragraph)", "setting": "[1]; p<0.001", "value": 93.8, "unit": "%"}]}
{"molecule": "Asn-Ser-Asp-Pro-Arg (NSDPR; printed: Asn-Ser-Asp-Pro-Arg)", "values": [{"measurement": "activity in blocking binding of IgE to lymphoblastoid tissue culture cells", "setting": "[2]", "value": "lower activity"}]}
{"molecule": "Asp-Ser-Glu-Pro-Arg (DSEPR; printed: Asp-Ser-Glu-Pro-Arg)", "values": [{"measurement": "blocking of immune complex binding to immunoglobulin Fc receptors", "setting": "[3]", "value": "capable of blocking immune complex binding"}]}
{"molecule": "N=C(N)NCCC[C@H](NC(=O)[C@@H]1CCCN1C(=O)[C@H](CC(=O)O)NC(=O)[C@H](CO)NC(=O)[C@@H](N)CC(=O)O)C(=O)O", "note": "[pentigetide, Asp-Ser-Asp-Pro-Arg] (H-DSDPR-OH)", "values": [{"measurement": "side effects", "setting": "[4]", "value": "did not experience any side effects"}]}
{"molecule": "COc1ccc2c(c1)c(CC(=O)O)c(C)n2C(=O)c1ccc(Cl)cc1", "note": "[Indomethacin, indomethacin]", "values": [{"measurement": "Percent Inhibition", "setting": "[5]; 1.0 hours after carrageenan injection", "value": -35, "unit": "%"}, {"measurement": "Percent Inhibition", "setting": "[5]; 2.0 hours after carrageenan injection", "value": -60, "unit": "%"}, {"measurement": "Percent Inhibition", "setting": "[5]; 4.0 hours after carrageenan injection", "value": -39, "unit": "%"}, {"measurement": "Percent Inhibition", "setting": "[5]; 6.0 hours after carrageenan injection", "value": -47, "unit": "%"}, {"measurement": "inhibition (footpad swelling)", "setting": "[6]", "value": 43, "unit": "%"}, {"measurement": "inhibition (footpad swelling)", "setting": "[7]", "value": 45, "unit": "%"}]}
{"molecule": "[-Cys-Ala-Asn-Ser-Asn-Pro-Arg]2 (CANSNPR; also: dimer)", "values": [{"measurement": "activity in blocking binding of IgE to lymphoblastoid tissue culture cells", "setting": "[2]", "value": "9% and 12%"}]}
{"molecule": "Asn-Ser-Asn-Pro-Arg (NSNPR; printed: Asn-Ser-Asn-Pro-Arg)", "values": [{"measurement": "activity in blocking binding of IgE to lymphoblastoid tissue culture cells", "setting": "[2]", "value": "lower activity"}]}
